# According to paper PMC8227885 (Viruses, 2021):
# Molecular target: SARS-CoV-2 RBD:ACE2 (UniProt P0DTC2+Q9BYF1)
# Test: biochemical
# Parameters: species or system SARS-CoV-2 (RBD); human (ACE2)
# Chain of SARS-CoV-2 RBD:ACE2 (Q9BYF1 18-615, one chain of several): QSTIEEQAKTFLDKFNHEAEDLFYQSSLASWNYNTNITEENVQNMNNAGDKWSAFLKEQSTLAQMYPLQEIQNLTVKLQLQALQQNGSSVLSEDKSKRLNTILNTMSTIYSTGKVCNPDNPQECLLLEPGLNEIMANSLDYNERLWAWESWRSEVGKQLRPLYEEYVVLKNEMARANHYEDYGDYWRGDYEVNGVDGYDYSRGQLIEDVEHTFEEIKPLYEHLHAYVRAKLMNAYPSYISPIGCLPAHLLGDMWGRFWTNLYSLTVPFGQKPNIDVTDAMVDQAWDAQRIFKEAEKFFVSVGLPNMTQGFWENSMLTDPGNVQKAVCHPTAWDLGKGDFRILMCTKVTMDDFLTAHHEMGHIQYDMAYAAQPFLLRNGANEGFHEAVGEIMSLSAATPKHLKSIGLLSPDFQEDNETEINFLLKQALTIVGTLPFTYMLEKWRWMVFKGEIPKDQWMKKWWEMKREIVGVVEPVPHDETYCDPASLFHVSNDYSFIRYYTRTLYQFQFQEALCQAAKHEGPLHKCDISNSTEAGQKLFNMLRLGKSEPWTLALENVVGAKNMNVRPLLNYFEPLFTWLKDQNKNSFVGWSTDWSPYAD
smiles,measurement,value
O=c1c(O)cc([C@H]2Oc3cc(O)cc(O)c3C[C@H]2O)cc2c([C@H]3Oc4cc(O)cc(O)c4C[C@H]3O)cc(O)c(O)c12 [Theaflavin],IC50,41.7 µM
same,effect on SRAE2-BS activity (suppression),significantly suppressed SRAE2-BS activity
